We go through three compounds from article PMC8308736, “Functional Characterization of the Oxantel-Sensitive Acetylcholine Receptor from Trichuris muris” (Pharmaceuticals, 2021).

Each structure is given as a SMILES string. Like-named read-outs stand apart in the source and are kept apart here.

Experiment [1] has as its target T1, Tmu-ACR-16-like (Trichuris muris, UniProt A0A5S6R3I6).
T1 construct: full-length subunit (464 amino acids; GenBank MZ322663), homomeric receptor in Xenopus laevis oocytes
Description: two-electrode voltage-clamp in Xenopus oocytes co-injected with Xla-ric-3. The class given is cell-based. In general terms: Two-electrode voltage clamp holds a large cell at a set potential and records current.

For experiment [2], the target named is T2, Tsu-ACR-16-like (Trichuris suis, UniProt A0A890W0I7).
T2 construct: ACR-16-like subunit (GenBank MT386096), homomeric receptor in Xenopus laevis oocytes
T2 sequence (A0A890W0I7 22-461): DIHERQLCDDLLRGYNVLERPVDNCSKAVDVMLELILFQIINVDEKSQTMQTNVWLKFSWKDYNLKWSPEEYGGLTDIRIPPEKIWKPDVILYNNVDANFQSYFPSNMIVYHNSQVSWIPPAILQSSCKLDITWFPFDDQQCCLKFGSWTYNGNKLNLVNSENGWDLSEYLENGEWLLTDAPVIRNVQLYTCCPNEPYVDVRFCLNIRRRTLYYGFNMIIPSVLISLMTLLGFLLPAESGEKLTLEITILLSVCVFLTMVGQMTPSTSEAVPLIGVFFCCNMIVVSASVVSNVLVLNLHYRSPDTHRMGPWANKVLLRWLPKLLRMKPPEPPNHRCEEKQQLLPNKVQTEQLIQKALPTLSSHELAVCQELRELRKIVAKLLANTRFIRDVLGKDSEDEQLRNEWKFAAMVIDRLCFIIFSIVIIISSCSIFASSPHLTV
The description is as above. The class given is cell-based.

T1 sequence (A0A5S6R3I6 entry or part of it): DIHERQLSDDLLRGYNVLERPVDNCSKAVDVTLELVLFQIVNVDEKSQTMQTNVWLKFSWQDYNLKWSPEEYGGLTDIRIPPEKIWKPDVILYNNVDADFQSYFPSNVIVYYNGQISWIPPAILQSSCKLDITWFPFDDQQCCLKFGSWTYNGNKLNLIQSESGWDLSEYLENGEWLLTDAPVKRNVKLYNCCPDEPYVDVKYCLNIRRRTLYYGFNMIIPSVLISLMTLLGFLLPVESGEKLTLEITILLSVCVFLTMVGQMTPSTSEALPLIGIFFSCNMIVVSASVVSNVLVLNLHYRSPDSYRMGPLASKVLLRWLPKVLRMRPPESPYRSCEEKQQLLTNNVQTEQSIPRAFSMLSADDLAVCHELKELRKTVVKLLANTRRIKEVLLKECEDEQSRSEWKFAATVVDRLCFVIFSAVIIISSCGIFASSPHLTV

Broadly, the EC50 is the concentration needed to bring the measured effect to its halfway point. On to `CC(=O)OCC[N+](C)(C)C` [acetylcholine], for which the EC50 in experiment [1] (read-out: EC50) stood at 31.1 ± 0.3 µM.

Take `CN1CCCN=C1/C=C/c1cccc(O)c1` [oxantel]: the concentration giving a half-maximal response (EC50) in experiment [1] (read-out: EC50) was determined as 32.7 ± 0.3 µM.

`Clc1ccc(C2CC3CCC2N3)cn1` (stereo not shown) [epibatidine]: the values for the 50% effective concentration (EC50) in experiment [1] and in experiment [2] were 1.7 ± 0.4 µM and 1.9 ± 0.5 µM, respectively.
